Positions of bridges follow the written chain, without caps; N, C: chain ends. No end group written: not given here.
Legend:
[1] = system: B16F10-Nex2 melanoma cells; test: Syngeneic metastatic melanoma model, lung nodule count; assay type: in vivo, C57BL/6 mice; settings: for antitumor activity (pulmonary nodules): alone, Rb9 300 μg 5 consecutive days, Imiquimod 50 μg 3 alternate days, CpG and Poly (I:C) two alternate days; for activity against metastatic melanoma of scramble peptides: 300 μg (10 mg/kg) i.p., alternate days, 5 doses, lungs after 14 days
Experimental: Male C57BL/6 mice, 6 to 8-week-old were obtained from the Center for Development of Experimental Models (CEDEME), Federal University of Sao Paulo (UNIFESP). For the in vivo metastatic model, C57BL/6 mice received one intravenous (i.v.) injection of 2×10^5 viable B16-F10-Next melanoma cells in 100 μL. […] The control group received 100 μL PBS. Twenty-two days later, mice (minimum n=3 per group) had their lungs harvested, and the number of macroscopic melanotic nodules were counted. The Ethical Committee of Federal University of São Paulo, Project no. 1234, 2011, approved all experiments with animals, according to International guidelines. For the subcutaneous model, mice were injected with 5×10^5 tumor cells suspended in 100 μL of PBS in the right flank via the subcutaneous route. The peptide (300 μg) was solubilized in 10 μL of distilled H2O and 90 μL of PBS and injected per mouse via the intraperitoneal route. The administration of the peptide was performed in 5 alternate days initiating one day after tumor challenge. Tumor longitudinal diameter (D) and transverse diameter (d) were measured every 2 days until the tumor volume reached 3,000 mm3. Animals were sacrificed when the allowed volume was reached. Volume was calculated using the formula v=Dd^2×0.52. Tumor Cell Growth In Vitro and In Vivo Details of the in vitro tumor cell growth, cytotoxicity tests, determination of viable cells and in vivo protection experiments with B16F10 cells in a mouse metastatic model are described in Polonelli et al. (PLoS One. 3(6):e2371, 2008) and Dobroff et al. (Transl. Onc., 3: 204-217, 2010).
6 to 8 Week-old C57BL/6 mice (n=5, per group) were intravenously challenged with 1×10^5 of syngeneic B16F10-Nex2 viable cells in 0.1 mL of RPMI medium without FBS, and treated on the next day with intraperitoneal doses of 300 μg (10 mg/kg) each, of Scr1, Scr2, Scr3 or Scr4 peptide or with the control vehicle (PBS) in alternate days, total of 5 doses. After 14 days, mice were euthanized, and lungs were harvested and assessed for metastatic colonization. The number of metastatic lesions was quantified using a stereo microscope (Nikon, Tokyo). The percentage of the tumor area/total area was also quantified by ImageJ software.
B16F10-Nex2 tumor cells (2×10^5) in RPMI (100 μl) were injected in both animal groups in the tail veins on day 0. Animals were sacrificed on day 22, or 10 days after the last administration of the peptide, and their lungs were examined for dark melanotic nodules.
C57Bl6 mice were intravenously challenged with 4×10^5 syngeneic B16F10-Nex2 cells in 0.1 ml of RPMI without FBS.
Mice were injected with 5×10^5 B16F10-Nex2 cells i.v. suspended in 100 μl PBS. […] Imiquimod at 50 μg/100 μl was injected i.p. in 3 alternate days; CpG ODN 1585, i.p., in two alternate days; and Poly (I:C), i.p., in two alternate days. After 15 days of tumor challenge, the animals were sacrificed, the lungs were removed and the pulmonary nodules were counted.

[2] = system: B16F10-Nex2 melanoma cells; test: Prophylactic adoptive transfer of peptide-stimulated dendritic cells, metastatic melanoma; assay type: in vivo, syngeneic mice; settings: DCs incubated with 50 μg/ml peptide, with or without tumor cell lysate; s.c.; tumor challenge day 14, count day 29
Experimental: DCs were obtained from the bone marrow of 6 to 8-week-old C57Bl6 mice. Briefly, femora and tibiae from mice were removed and stripped of muscles and tendons; both bone ends were cut, and bone marrow was extracted by placing the bone pieces into 1-ml tips, which in turn were inserted into 15-ml tubes and centrifuged for 10 minutes at 1500 rpm. Cells were resuspended in DMEM and cell clusters were dissociated by repeated pipetting. The total bone marrow cells were cultured in 100-mm treated tissue culture dish in 10 ml of R10 medium (DMEM medium supplemented with 2 mM glutamine, 10,000 U/ml penicillin, 10 mg/ml streptomycin, 50 μM 2-mercaptoethanol, 1 mM sodium pyruvate, MEM-nonessential aminoacids, MEM Vitamin solution, 10% heat-inactivated fetal bovine serum and GM-CSF (20 ng/ml) and IL-4 (40 ng/ml). Fresh medium (3 ml) with GM-CSF (200 ng/ml) and IL-4 (400 ng/ml) was added every 3 days. On day 7, adherent cells, that were harvested using PBS 2 mM EDTA, together with the non-adherent cells were pooled and used as the starting cell source for the experiments. BMDC Protocol 2
DCs were inoculated s.c. in syngeneic mice. On day 14, mice were inoculated i.v. with melanoma tumor cells (5×10^5 cells) and on day 29, the lung melanotic nodules were counted.

[3] = system: T lymphocytes of lungs, spleen and lymph nodes; test: Flow cytometry of Treg, T-CD4+ and T-CD8+ cells after prophylactic DC protocol; assay type: in vivo, mice; settings: spleen and lymph nodes (except lungs), day 29, DCs stimulated by peptide
Experimental: On day 14, mice were inoculated i.v. with B16F10.Nex2 melanoma tumor cells and on day 29, lungs, spleen and cervical and axillary lymph nodes were examined for CD3+ cells, and the proportion of T-CD4+ and T-CD8+ cells.
The lungs were incubated with 2 mg/ml of collagenase for 40 min at 37° C. before maceration. The cell suspension was incubated with cold hemolytic buffer for 1 min and then centrifuged. The pellet was suspended with RPMI medium and counted. 1×10^6 Cells of each group were processed and stained using the Treg Detection Kit (Miltenyi Biotec, Cambridge, USA). Lymphocytes were characterized using anti-CD4 (FITC), anti-CD25 (PE) and anti-Foxp3 (APC). Samples were analyzed by flow cytometry using FACSCantoII (Becton Dickinson, San Jose, Calif., USA). Acquired data were analyzed using the FlowJo V10 (TreeStar Inc., Ashland, Oreg., USA). The percentages of Foxp3^+ in CD4^+CD25^+ lymphocytes are indicated.
The cell suspension was incubated with cold hemolytic buffer for 1 min and then centrifuged. The pellet was suspended with RPMI medium and counted. 1×10^6 Cells of each group were stained with anti-CD3 (PE) and anti-CD4 (FITC) or anti-CD3 (PE) and anti-CD8 (FITC). All antibodies used were purchase from Miltenyi Biotec, Cambridge, USA. Samples were analyzed by flow cytometry using FACSCantoII (Becton Dickinson, San Jose, Calif., USA). Acquired data were analyzed using the FlowJo V10 (TreeStar Inc., Ashland, Oreg., USA). The percentages of CD4^+ or CD8^+ in CD3^+ lymphocytes are indicated.

splenocytes = test: Splenocyte cytokine production in melanoma-bearing treated mice (ELISA); assay type: in vivo; settings: 300 μg i.p. 5 consecutive days
Experimental: Mice were challenged with 5×10^5 B16F10-Nex2 cells via the i.v. route. […] Peptides at 300 μg solubilized in 10 μl distilled H2O and 90 μl of PBS were injected via i.p. route per animal, for 5 consecutive days initiating one day after tumor cell challenge. Seventeen days after tumor challenge mice were sacrificed and spleens were removed. Splenocytes after incubation in hemolysis buffer were suspended in R10 medium and plated in 6-well plates and 10^6 cells/well. Cells were incubated for 72 h with or without tumor cell lysate (from 10^5 B16F10-Nex2 cells) in triplicate. The supernatants were collected, and cytokines measured by ELISA (FIG. 11).

CD11c+ cells = test: TGF-beta1 ELISA of CD11c+ cells from lymphoid organs of melanoma-bearing treated mice; assay type: in vivo, C57Bl6 mice; settings: 300 μg/dose i.p., day 17
Experimental: Animals were sacrificed on day 17 and their lungs, cervical and axillary lymph nodes and spleen were processed for examination. Lymph nodes and spleen were macerated separately, DMEM was added and passed through a cell strainer. CD11c+ cells were isolated using mouse CD11c+ beads and magnetic sorting. Cells were suspended in R10 medium and plated in […] at 10^6 cells/well. Cells were incubated for 24 h with or without tumor cell lysate (B16F10 stimulus). The supernatant was used in a TGF-beta1 ELISA test.

[4] = system: LPS stimulated DCs characterized by CD11c+ MHC-II+; test: Co-stimulatory markers of LPS stimulated murine bone-marrow DCs; assay type: cell-based
From the text: Rb9 immunomodulation of murine bone-marrow dendritic cells (DCs) was also examined focusing on co-stimulatory markers.

[5] = system: colorectal CT26 carcinoma cells; test: Subcutaneous syngeneic colorectal carcinoma model; assay type: in vivo, Balb/c mice
[6] = system: CD11c+, MHC II+ bone marrow DCs; test: Marker expression of bone marrow DCs with or without Poly I:C (flow cytometry); assay type: cell-based, C57Bl6 mice; settings: 60 h
Experimental: DCs were obtained from the bone marrow of 6 to 8-week-old C57Bl6 mice. Briefly, femora and tibiae from mice were removed and stripped of muscles and tendons; both bone ends were cut and bone marrow was flushed out with RPMI 1640 medium using a 21-gauge needle and syringe. Cell clusters were dissociated by passing through a cell strainer and 0.45 M ammonium chloride was added for red cell lysis. After washing the cell suspension twice in RPMI 1640, 10×10^6 bone marrow cells per well were cultured in non-treated tissue-culture 6-well plates with 4 ml of complete medium (RPMI 1640 supplemented with 2 mM glutamine, 10,000 U/mL penicillin, 10 mg/mL streptomycin, 50 μM 2-mercaptoethanol, 10% heat-inactivated fetal calf serum with GM-CSF (50 ng/ml). Half of the medium was removed on day 2 and new medium supplemented with GM-CSF (100 ng/ml) and warmed at 37° C. was added. The culture medium was entirely discarded on day 3 and replaced by fresh warmed medium with GM-CSF (50 ng/ml). On day 6, non-adherent cells in the culture supernatant and loosely adherent cells harvested by gentle washing with PBS were pooled and used as the starting cell source for the experiments.
For murine cell analysis, these were stained in ice-cold PBS containing BSA (0.5%) and EDTA (2 mM) using appropriate antibody-fluorophore conjugates. Multiparameter analysis was performed on a BD FACSCanto II analyzer (BD Biosciences) and analyzed with FlowJo software (Tree Star). The following antibodies were used: anti-MHC Class II, anti-CD11c, anti-CD8a, anti-CD3e, anti-CD4, anti-CD86, anti-CD40, anti-CD80, Prior to acquisition, cells were resuspended in PBS/BSA 0.5%/EDTA (2 mM).
DCs were centrifuged and washed once with MACS buffer. Cells (10^6) were resuspended in 45 μl of buffer and 5 μl of antibodies/fluorophore, CD11c APC, MHC II PE, CD80 FITC, CD86 VioBlue and CD40 PE. The samples were acquired in BD FACS Canto II using the FacsDiva software. The data were analyzed by using the FlowJo software.

[7] = 100 μg/ml peptide + 12.5 μg/ml Poly I:C

Compound: CC(C)Cn1cnc2c(N)nc3ccccc3c21 [Imiquimod, reference compound]
- antitumor activity (pulmonary nodules) ([1]; i.p., 15 days after challenge): Antitumor activities of Rb9 and Imiquimod were the same

Compound: Poly I:C [reference compound]
- antitumor activity (pulmonary nodules) ([1]; i.p., 15 days after challenge): strongly active
- antitumor activity of Poly I:C combined with Rb9 ([1]; i.p., 15 days after challenge): strongly active

Compound: [AARGETARATFAYWGQG], NH2 [Rb10A1]
- protective effect of peptide-stimulated DCs (lung melanotic nodules) [2]: also protective against melanoma in the metastatic model but less effectively than Rb9
- proportion of T-CD8+ to T-CD4+ cells [3]: T-CD8+ cells greatly predominated over T-CD4+ effector cells
- cytokine production in splenocytes (generally) (splenocytes): downregulated
- IL-12 production in splenocytes (splenocytes; no stimulus necessary): comparable in the three groups
- TGF-beta in tumor-lysate stimulated CD11c+ cells from the spleen (CD11c+ cells): markedly inhibited
- TGF-beta secreted by lymph node CD11c+ cells (CD11c+ cells; vs vehicle (PBS) control cells stimulated by melanoma lysate): fully inhibited
- CD40 expression [4]: regulated CD40 expression
- expression of CD80 and CD86 ([4]; Rb9 mainly at 50 μg/ml): significantly stimulated

Compound: [CAEATYWRRGGQAAGFTC], NH2 (C-C) (CAEATYWRRGGQAAGFTC-NH2; disulfide 1-18 (inferred)) [Scr1, cyclic scramble peptide of Rb9]
- activity against metastatic melanoma of scramble peptides [1]: activity similar to Rb9

Compound: [CARGETARATFAYWGQG], NH2 (CARGETARATFAYWGQG-NH2) [Rb10, linear peptide lacking terminal cysteine]
- subcutaneous tumor growth ([5]; CT26 cells of high virulence (Argentina cell line), 5 alternate days): delayed
- survival time ([5]; CT26 cells of high virulence, H-2^d syngeneic animals): prolonging the survival time

Compound: [CETWRGAATRGAFQAYGC], NH2 (C-C) (CETWRGAATRGAFQAYGC-NH2; disulfide 1-18 (inferred)) [Scr3, cyclic scramble peptide of Rb9]
- activity against metastatic melanoma of scramble peptides [1]: good negative control

Compound: [RATFAYWG], NH2 [Rb9-MID]
- CD40 expression over Poly I:C [6, 7]: stimulated CD40 over Poly I:C much like Rb9
- expression of MHC II over Poly I:C and Rb9 [6, 7]: significantly increased
- expression of CD80 ([6]; 100 μg/ml peptide, with or without Poly I:C): similar

From patent publication US11479604B2, “Immunomodulatory peptides and methods for modulating the immune system in a subject” (Recepta Biopharma S.A., priority 2017, dated 2022)
